Laboratory results from ChEMBL document CHEMBL1201862, “PubChem BioAssay data set” (2004).
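A five-concentration, 48-hour dose response in 96-well plates underlies each endpoint, interpolated linearly between surrounding concentrations. At the GI50, growth is halved.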 Calls of active or inactive are those of the source. Cut-off read from the data, not from the text of the source: active = GI50 up to about 1.1 µM and inactive = higher. Peptide text beside a SMILES is read from it. * marks the point of attachment. Trt = c1ccc(C(c2ccccc2)(c2ccccc2)*)cc1; Cbz = O=C(OCc1ccccc1)*

How the values were obtained:
Experiment in all cases: inhibition of tumour cell growth, NCI panel, 48 h
HCT-15 = system: HCT-15
KM12 = system: KM12
NCI-H460 = system: NCI-H460
MOLT-4 = system: MOLT-4
HCT-116 = system: HCT-116
SK-MEL-5 = system: SK-MEL-5
LOX IMVI = system: LOX IMVI
T47D = system: T47D
Hs-578T = system: Hs-578T
IGROV-1 = system: IGROV-1
OVCAR-4 = system: OVCAR-4
NCI-H226 = system: NCI-H226
HT-29 = system: HT-29
HOP-62 = system: HOP-62
NCI-H522 = system: NCI-H522
RXF 393 = system: RXF 393
RPMI-8226 = system: RPMI-8226
SK-MEL-28 = system: SK-MEL-28
Malme-3M = system: Malme-3M
M19-MEL = system: M19-MEL

Structure (SMILES) | GI50 (HCT-15) | GI50 (KM12) | GI50 (NCI-H460) | GI50 (MOLT-4) | GI50 (HCT-116) | GI50 (SK-MEL-5) | GI50 (LOX IMVI) | GI50 (T47D) | GI50 (Hs-578T) | GI50 (IGROV-1) | GI50 (OVCAR-4) | GI50 (NCI-H226) | GI50 (HT-29) | GI50 (HOP-62) | GI50 (NCI-H522) | GI50 (RXF 393) | GI50 (RPMI-8226) | GI50 (SK-MEL-28) | GI50 (Malme-3M) | GI50 (M19-MEL)
O=C(O)c1ccc(NNC(=O)c2cccc3c(=O)c4ccccc4[nH]c23)cc1 | > 100 µM | > 100 µM (inactive) | 92.9 µM (inactive) | 78.9 µM (inactive) | > 100 µM (inactive) | 55.5 µM (inactive) | 44.6 µM (inactive) | 31.6 µM (inactive) | > 100 µM (inactive) | > 100 µM (inactive) | > 100 µM (inactive) | > 100 µM (inactive) | > 100 µM (inactive) | > 100 µM (inactive) | 25.4 µM (inactive) | > 100 µM (inactive) | > 100 µM (inactive) | > 100 µM (inactive) | 97.9 µM (inactive) | 
CN(/N=C/c1ccc(OCc2cccc(COc3ccc(C=O)cc3)n2)cc1)c1cnn(-c2ccc(Cl)cc2Cl)c(=O)c1Cl | > 100 µM | > 100 µM (inactive) | > 100 µM (inactive) | > 100 µM (inactive) | > 100 µM (inactive) | > 100 µM (inactive) | 88.1 µM (inactive) | > 100 µM (inactive) | > 100 µM (inactive) | 62.5 µM (inactive) | 6.9 µM (inactive) | > 100 µM (inactive) | > 100 µM (inactive) | 17.7 µM (inactive) | > 100 µM (inactive) | 21.5 µM (inactive) | 53.1 µM (inactive) | > 100 µM (inactive) | 84.1 µM (inactive) | 
O=C1OC(=O)C2CCCC3CCCC1C32 (centres undefined) | > 100 µM | > 100 µM (inactive) | > 100 µM (inactive) | > 100 µM (inactive) | > 100 µM (inactive) | > 100 µM (inactive) | > 100 µM (inactive) | > 100 µM (inactive) | > 100 µM (inactive) | > 100 µM (inactive) | > 100 µM (inactive) | > 100 µM (inactive) | > 100 µM (inactive) | > 100 µM (inactive) | > 100 µM (inactive) | > 100 µM (inactive) | > 100 µM (inactive) | > 100 µM (inactive) | > 100 µM (inactive) | 
c1cc2c(c(NC3=NCCO3)c1)CCC2 | > 100 µM | > 100 µM (inactive) | > 100 µM (inactive) | > 100 µM (inactive) | > 100 µM (inactive) | > 100 µM (inactive) | > 100 µM (inactive) | > 100 µM (inactive) | 78.2 µM (inactive) | > 100 µM (inactive) | > 100 µM (inactive) | > 100 µM (inactive) | > 100 µM (inactive) | > 100 µM (inactive) | > 100 µM (inactive) | > 100 µM (inactive) | > 100 µM (inactive) | > 100 µM (inactive) | > 100 µM (inactive) | 
CN(C)CCn1c(=O)c2ccc3c4c(nn3CCN(C)C)c3cc(N)ccc3n(c1=O)c24 | < 0.0169 µM | < 0.0196 µM (active) | < 0.01 µM (active) | < 0.011 µM (active) | < 0.0145 µM (active) | 0.0516 µM (active) | 0.0154 µM (active) | 0.0312 µM (active) | 0.091 µM (active) | < 0.015 µM (active) | 0.0165 µM (active) | 0.0791 µM (active) | < 0.01 µM (active) | < 0.01 µM (active) | 0.02 µM (active) | < 0.032 µM (active) | < 0.01 µM (active) | 0.0646 µM (active) | 0.0667 µM (active) | 
O=C(CC(=O)c1ccccc1)c1ccccc1.O=C(CC(=O)c1ccccc1)c1ccccc1.O=C(CC(=O)c1ccccc1)c1ccccc1.[SiH4] |  | 3.48 µM (inactive) |  | 2.59 µM (inactive) | 5.02 µM (inactive) | 4.66 µM (inactive) | 3.1 µM (inactive) |  |  | 5.4 µM (inactive) | 4.63 µM (inactive) | 8.87 µM (inactive) | 4.41 µM (inactive) | 7.59 µM (inactive) | 2.26 µM (inactive) |  | 4.03 µM (inactive) | 7.76 µM (inactive) | 11.8 µM (inactive) | 3.31 µM (inactive)
COC(=O)C(CO)NC(=O)C(CSC(c1ccccc1)(c1ccccc1)c1ccccc1)NC(=O)OCc1ccccc1 (centres undefined) (Cbz-Cys(Trt)-Ser-OMe; configuration not given here) | 19.2 µM | 16.1 µM (inactive) | 8.81 µM (inactive) | 0.61 µM (active) | 12.3 µM (inactive) | 15.1 µM (inactive) | 15.7 µM (inactive) | 20.7 µM (inactive) | 18.5 µM (inactive) | 16.8 µM (inactive) | 20.6 µM (inactive) | 12.2 µM (inactive) | 11.4 µM (inactive) | 17.3 µM (inactive) | 15.5 µM (inactive) | 8.91 µM (inactive) | 0.36 µM (active) | 17 µM (inactive) | 14.5 µM (inactive) | 
